Assay results taken from the supplement of paper PMC8253809.

What was measured:
HABS [1] = astrocyte control; test: area under dose-response curve of % growth inhibition (log2 RLU vs DMSO / staurosporine), 1e-11 to 1e-4 M (% x log10 M); higher = more growth inhibition
Procedure, shortened: (§1)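 Area under the curve was derived with the trapezoid rule from a fitted log-logistic curve, switching to a smoothing spline if the sigmoid fit failed. It rested on per-plate % activity between solvent and positive controls, calculated from log2-transformed CellTiter-Glo luminescence after 7 days of exposure (3 days for iAstro) at 37 °C, 5% CO2. Patient-derived pHGG/DIPG lines and astrocytes on 1% Geltrex-coated 384-well plates received a 10-point threefold dilution series, mean top concentration 35 μM, in triplicate.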

HGGX42 [2] = H3.3 G34R paediatric high-grade glioma line; test: as above
Procedure, shortened: as §1

iAstro [3] = astrocyte control; test: as above
Procedure, shortened: as §1

DIPGX29 [4] = H3.3 K27M diffuse intrinsic pontine glioma line; test: as above
Procedure, shortened: as §1

DIPGX9 [5] = diffuse intrinsic pontine glioma line; test: as above
Procedure, shortened: as §1

SUDIPGIV [6] = diffuse intrinsic pontine glioma line; test: as above
Procedure, shortened: as §1

SUDIPGXIX [7] = diffuse intrinsic pontine glioma line; test: as above
Procedure, shortened: as §1

SUDIPGXIII = diffuse intrinsic pontine glioma line; test: as above
Procedure, shortened: as §1

HGGX39 [8] = paediatric high-grade glioma line; test: as above
Procedure, shortened: as §1

HGGX6 [9] = H3.3 G34R paediatric high-grade glioma line; test: as above
Procedure, shortened: as §1

DIPGX37 [10] = H3.3 K27M diffuse intrinsic pontine glioma line; test: as above
Procedure, shortened: as §1

SUDIPGVI = diffuse intrinsic pontine glioma line; test: as above
Procedure, shortened: as §1

DIPGX7 [11] = H3.3 K27M diffuse intrinsic pontine glioma line; test: as above
Procedure, shortened: as §1

SUDIPGXVII [12] = diffuse intrinsic pontine glioma line; test: as above
Procedure, shortened: as §1

HGGX2 [13] = paediatric high-grade glioma line; test: as above
Procedure, shortened: as §1

SUDIPGXXI [14] = diffuse intrinsic pontine glioma line; test: as above
Procedure, shortened: as §1

HGGX42 [15] = test: maximal growth inhibition (yFin) relative to DMSO / staurosporine; higher = more efficacious
Procedure, shortened: (§2)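 Compounds were delivered by pin tool as a 10-point threefold dilution series with a mean top concentration of 35 μM, in triplicate, to patient-derived pHGG/DIPG cell lines and astrocyte controls growing on 1% Geltrex-coated 384-well plates. Incubation lasted 7 days, or 3 days for iAstro, at 37 °C with 5% CO2. EC50 and maximal response (yFin) come from the three- or four-parameter log-logistic fit with the lowest AICc, applied to pooled, log2-transformed CellTiter-Glo luminescence normalised per plate to % activity between solvent (negative) and positive control wells.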

iAstro [16] = test: as above
Procedure, shortened: as §2

DIPGX29 [17] = test: as above
Procedure, shortened: as §2

DIPGX37 [18] = test: as above
Procedure, shortened: as §2

DIPGX7 [19] = test: as above
Procedure, shortened: as §2

SUDIPGXXI [20] = test: as above
Procedure, shortened: as §2

HGGX42 [21] = test: EC50 (inflection of fitted growth-inhibition curve) (log10 M)
Procedure, shortened: as §2

iAstro [22] = test: as above
Procedure, shortened: as §2

DIPGX29 [23] = test: as above
Procedure, shortened: as §2

DIPGX37 [24] = test: as above
Procedure, shortened: as §2

DIPGX7 [25] = test: as above
Procedure, shortened: as §2

SUDIPGXXI [26] = test: as above
Procedure, shortened: as §2

HABS [27] = test: maximal growth inhibition (yFin) relative to DMSO / staurosporine; higher = more efficacious
Procedure, shortened: as §2

DIPGX9 [28] = test: as above
Procedure, shortened: as §2

SUDIPGIV [29] = test: as above
Procedure, shortened: as §2

SUDIPGXIX [30] = test: as above
Procedure, shortened: as §2

HGGX39 [31] = test: as above
Procedure, shortened: as §2

SUDIPGXVII [32] = test: as above
Procedure, shortened: as §2

HGGX2 [33] = test: as above
Procedure, shortened: as §2

HABS [34] = test: EC50 (inflection of fitted growth-inhibition curve) (log10 M)
Procedure, shortened: as §2

DIPGX9 [35] = test: as above
Procedure, shortened: as §2

SUDIPGIV [36] = test: as above
Procedure, shortened: as §2

SUDIPGXIX [37] = test: as above
Procedure, shortened: as §2

HGGX39 [38] = test: as above
Procedure, shortened: as §2

SUDIPGXVII [39] = test: as above
Procedure, shortened: as §2

HGGX2 [40] = test: as above
Procedure, shortened: as §2

HGGX6 [41] = test: maximal growth inhibition (yFin) relative to DMSO / staurosporine; higher = more efficacious
Procedure, shortened: as §2

HGGX6 [42] = test: EC50 (inflection of fitted growth-inhibition curve) (log10 M)
Procedure, shortened: as §2

SMILES | area under dose-response curve (HABS [1]) | area under dose-response curve (HGGX42 [2]) | area under dose-response curve (iAstro [3]) | area under dose-response curve (DIPGX29 [4]) | area under dose-response curve (DIPGX9 [5]) | area under dose-response curve (SUDIPGIV [6]) | area under dose-response curve (SUDIPGXIX [7]) | area under dose-response curve (SUDIPGXIII) | area under dose-response curve (HGGX39 [8]) | area under dose-response curve (HGGX6 [9]) | area under dose-response curve (DIPGX37 [10]) | area under dose-response curve (SUDIPGVI) | area under dose-response curve (DIPGX7 [11]) | area under dose-response curve (SUDIPGXVII [12]) | area under dose-response curve (HGGX2 [13]) | area under dose-response curve (SUDIPGXXI [14]) | maximal growth inhibition (iAstro [16]) | maximal growth inhibition (SUDIPGXXI [20]) | EC50 (log10 M) (iAstro [22]) | EC50 (log10 M) (SUDIPGXXI [26]) | further results
Fc1ccc(N2CCN(CCC3OCCc4ccccc43)CC2)cc1 (stereo not drawn) | 1.16 | 37.8 | 24 | 27.2 | 13.4 | 15.7 | 0 | 13.4 | 18.1 | 14.9 | 33.4 | 12.8 | 37.3 | 8.36 | 15.4 | 87.1 | 23.3% | 57.5% | -5.03 | -5.02 | maximal growth inhibition (HGGX42 [15]): 38.6%; maximal growth inhibition (DIPGX29 [17]): 26.6%; maximal growth inhibition (DIPGX37 [18]): 34.9%; maximal growth inhibition (DIPGX7 [19]): 40.7%; EC50 (log10 M) (HGGX42 [21]): -4.98; EC50 (log10 M) (DIPGX29 [23]): -5.02; EC50 (log10 M) (DIPGX37 [24]): -4.97; EC50 (log10 M) (DIPGX7 [25]): -4.91
O=C1NC(=O)C(c2cnc3ccccn23)=C1c1cn2c3c(cc(F)cc13)CN(C(=O)N1CCCCC1)CC2 | 199 | 72.1 | 66.3 | 42 | 64 | 300 | 37 | 6.37 | 70.9 | 30.8 | 24.1 | 6.26 | 6.78 | 16.9 | 27 | 277 | 45.8% | 112% | -5.34 | -6.42 | maximal growth inhibition (HABS [27]): 50.7%; maximal growth inhibition (HGGX42 [15]): 60.7%; maximal growth inhibition (DIPGX29 [17]): 49.3%; maximal growth inhibition (DIPGX9 [28]): 97.2%; maximal growth inhibition (SUDIPGIV [29]): 69.8%; maximal growth inhibition (SUDIPGXIX [30]): 24.1%; maximal growth inhibition (HGGX39 [31]): 35.2%; maximal growth inhibition (DIPGX37 [18]): 52.1%; maximal growth inhibition (SUDIPGXVII [32]): 22.3%; maximal growth inhibition (HGGX2 [33]): 40.7%; EC50 (log10 M) (HABS [34]): -7.93; EC50 (log10 M) (HGGX42 [21]): -5.13; EC50 (log10 M) (DIPGX29 [23]): -4.49; EC50 (log10 M) (DIPGX9 [35]): -4.66; EC50 (log10 M) (SUDIPGIV [36]): -8.3; EC50 (log10 M) (SUDIPGXIX [37]): -5.7; EC50 (log10 M) (HGGX39 [38]): -6.42; EC50 (log10 M) (DIPGX37 [24]): -4.48; EC50 (log10 M) (SUDIPGXVII [39]): -4.97; EC50 (log10 M) (HGGX2 [40]): -4.66
Cc1nc(Nc2ncc(C(=O)Nc3c(C)cccc3Cl)s2)cc(N2CCN(CCO)CC2)n1 [DASATINIB] | 143 | 83.4 | 27.6 | 54.9 | 80 | 60.9 | 51.9 | 16.1 | 77.5 | 61.1 | 39.6 | 12 | 26.2 | 22 | – | 109 | 34.9% | 110% | -4.82 | -4.85 | maximal growth inhibition (DIPGX9 [28]): 64.4%; maximal growth inhibition (SUDIPGXIX [30]): 50.4%; maximal growth inhibition (HGGX39 [31]): 41.3%; maximal growth inhibition (DIPGX7 [19]): 28.2%; EC50 (log10 M) (DIPGX9 [35]): -4.85; EC50 (log10 M) (SUDIPGXIX [37]): -4.77; EC50 (log10 M) (HGGX39 [38]): -5.3; EC50 (log10 M) (DIPGX7 [25]): -4.59
C#Cc1cccc(Nc2ncnc3cc(OCCOC)c(OCCOC)cc23)c1 [ERLOTINIB] | 86.4 | 50 | 29.7 | 28.1 | 68.4 | 53 | 78.6 | 9.16 | 34.2 | 22.9 | 51.3 | 33.8 | 44.7 | 44.5 | 37.1 | 178 | 27.5% | 103% | -5.17 | -5.65 | maximal growth inhibition (HABS [27]): 80.2%; maximal growth inhibition (HGGX42 [15]): 31.5%; maximal growth inhibition (DIPGX29 [17]): 25.7%; maximal growth inhibition (DIPGX9 [28]): 53.6%; maximal growth inhibition (SUDIPGXIX [30]): 62.6%; maximal growth inhibition (HGGX39 [31]): 40.4%; maximal growth inhibition (HGGX6 [41]): 30.5%; maximal growth inhibition (SUDIPGXVII [32]): 25.8%; maximal growth inhibition (HGGX2 [33]): 32.7%; EC50 (log10 M) (HABS [34]): -4.84; EC50 (log10 M) (HGGX42 [21]): -5.09; EC50 (log10 M) (DIPGX29 [23]): -4.82; EC50 (log10 M) (DIPGX9 [35]): -5.14; EC50 (log10 M) (SUDIPGXIX [37]): -5.24; EC50 (log10 M) (HGGX39 [38]): -4.77; EC50 (log10 M) (HGGX6 [42]): -4.65; EC50 (log10 M) (SUDIPGXVII [39]): -5.32; EC50 (log10 M) (HGGX2 [40]): -5.13
